Reference: patent US20200147149A1, “COMPOSITIONS AND METHODS FOR THE MODULATION OF GUT SENSORY CELLS” (Duke University, priority 2017, published 2020)
Entries after “also recorded” stand apart in the source; their conditions may differ.

Key:
nodose neurons = test: Patch-clamp electrophysiology of nodose neurons cultured alone; format: cell-based, mouse; conditions: 10-20 mM D-glucose
[1] = test system: vagal nodose neurons connected to enteroendocrine cells; test: Patch-clamp electrophysiology of nodose neurons co-cultured with enteroendocrine cells; format: cell-based, mouse; conditions: D-glucose (10 mM); for excitatory postsynaptic potentials and action potentials in connected neurons: co-culture
Method: The small intestines of CckGFP and CckCRE_ChR2-tdTomato mice were dissected and flushed twice with cold PBS. The intestine was cut open lengthwise and cut again into ˜1 cm pieces. Tissue pieces were incubated with 3 mM EDTA at 4° C. for 15 minutes then at 37° C. for 15 minutes. New cold PBS was added and villi and crypts were mechanically detached. Villi and crypts were spun down and further digested in Collagenase and Dispase. Cells were spun down and re-suspended in L-15 media with 5% FBS and DNase to prevent cell clumping. Cells were passed through a 70 μm then 40 μm cell strainer to isolate single cells. Then cells were sorted using Fluorescence Activated Cell sorting (BD FACSAria) selecting for GFP fluorescence cells. Cells were sorted into culture media: 10 μl/ml Glutamax, 10 μl/ml HEPES, 20 μl/ml Penicillin-Streptomycin, 10 μl/ml N2 supplement, 20 μl/ml B27 supplement, 0.25 μl/ml EGF, 0.5 μl/ml Noggin, 1 μl/ml r-Spondin and 1 μl/ml NGF in Advanced DMEM/f12. Sorted cells were plated on Matrigel coated 12 mm coverslips at a concentration of ˜8-10 k enteroendocrine cells per coverslip. Nodose neurons were dissected and incubated with Liberase digestion enzyme. Enzyme was washed off and replaced with media. Single cells were dissociated by mechanical force and filtered through a 70 μm cell strainer. Neurons in media were plated evenly on up to 8 coverslips with enteroendocrine cells. Patch-clamp electrophysiology was performed 1-5 days after plating.
Enteroendocrine cells and nodose neurons were co-cultured as described above. Co-culture coverslips were placed in the recording chamber filled with extracellular solution. Recordings were carried out at room temperature using a MultiClamp 700B amplifier (Axon Instruments), digitized using a Digidata 1550A (Axon Instruments) interface, and pClamp software (Axon Instruments) for data acquisition. Data was filtered at 1 kHz and sampled at 10 kHz. CCK-producing enteroendocrine cells were identified by GFP expression and neurons by their morphology and lack of fluorescence. Recordings were made using borosilicate glass pipettes pulled to ˜3.5 MΩ resistance [DVB4]. Extracellular solution contained (in mM): 140 NaCl, 5 KCl, 2 CaCl2, 2 MgCl2, 10 HEPES, pH 7.4 (300-305 mOsmol). For voltage-clamp recordings, intracellular solution contained (in mM): 140 CsF, 10 NaCl, 0.1 CaCl2, 2 MgCl2, 1.1 EGTA, 10 HEPES, 10 sucrose (pH, 7.25, 290-295 mOsmol). For current-clamp recordings, intracellular solution contained (in mM): 140 KCl, 0.5 EGTA, 5 HEPES, 3 Mg-ATP, 10 sucrose (pH, 7.25, 290-295 mOsmol). Neurons were held at −70 mV for 5 min after patching in voltage-clamp mode (to stabilize cells), and then switched to the current-clamp mode. At the resting membrane potential, cell properties such as input resistance, and spike threshold were determined using 200 ms steps from −40 pA to 100 pA in 20 pA increment. […] After glucose exposure, neurons were tested with a current or voltage pulse to confirm the health of the cell. For glutamate receptor blocker experiments, the […]® Micro-perfusion system (Automate Scientific, Inc.) was used. Once the neuron was patched, the […]® nozzle was brought to within 100 μm of the cell, while extracellular solution was perfusing. Kynurenic acid (3 mM) was perfused, then washed for 5 minutes after and the neuron was tested again. EPSC responses were recorded for 1 second after light stimulation. Data are presented as the mean±S.E.M. and significance was determined using a two-tailed Student's t test.

O=C[C@H](O)[C@@H](O)[C@H](O)[C@H](O)CO [D-glucose]
excitatory currents / action potentials in nodose neurons cultured alone (nodose neurons): neither excitatory currents nor action potentials were observed | excitatory currents / action potentials in nodose neurons cultured alone (nodose neurons; listed as glucose): did not activate | excitatory postsynaptic potentials and action potentials in connected neurons [1]: evoke excitatory postsynaptic potentials and action potentials | excitatory postsynaptic potentials and action potentials in connected neurons ([1]; listed as glucose): evoked EPSCs; also recorded: induced excitatory post-synaptic potentials and action potential spikes | action potentials in the connected neurons (average) ([1]; current-clamp, n=5 pairs): 2±0.32 | average current of the excitatory post-synaptic potentials (EPSPs) ([1]; voltage-clamp, n=6): 61.65±15.21 pA | average frequency of the excitatory post-synaptic potentials ([1]; voltage-clamp, n=6): 0.86±0.17 Hz
